Measured values taken from article PMC7961786, “Magic Peptide: Unique Properties of the LRR11 Peptide in the Activation of Leukotriene Synthesis in Human Neutrophils” (International Journal of Molecular Sciences, 2021).
“Also recorded” adds a separate entry of the source.

Key:
[1] = test system: PMNLs; test: Phagocytosis of FITC-labeled S. typhimurium by neutrophils; format: cell-based, human; conditions: 1 µM ODN +/- 1 µM LRR11, FITC-labeled S. typhimurium 20 min; n = 3; Figure S2b
Description: Figure S2b. Influence of LRR11 and ODNs on phagocytic activity of neutrophils. PMNLs supplemented with 1 µM ODN +/- 1 µM LRR11, except for control samples containing HBSS/HEPES instead of ODNs, were incubated for 20 min in Eppendorf tubes at 37 °C in 5% CO2 with continuous stirring. FITC-labeled S. typhimurium were then added for next 20 min, followed by FACS analysis (excitation: 488 nm, emission: 525 nm). Both the relative amounts of PMNLs involved in phagocytosis (A, B) and the fluorescence intensities, reflecting the average number of bacteria captured per cell (C, D), were estimated. To distinguish between internalized and surface-bound bacterial cells, trypan blue at a working concentration of 1 mg/ml, was used to quench the surface FITC fluorescence caused by the attached bacteria. Thus, each series of samples was duplicated to obtain results both without (A, C) and with (B, D) TB quenching, which corresponds to the total interaction and uptake of bacteria. Averaged flow cytometry data are presented, including means ± SEM for the percentages of FITC-positive (i.e., phagocytic) cells (A, B), and mean ± SEM for fluorescence intensities of FITC-positive subpopulations (C, D) (n=3; * p < 0.05; ** p < 0.01 in comparison with corresponding controls, ns – non significant, as indicated by two-way ANOVA followed by Dunnett’s or Tukey’s multiple comparison tests). […]

[2] = test system: mouse-derived monocyte/macrophage cell line RAW 264.7; conditions: ref [9]; cited from earlier work
Text: (§1) In neutrophils, bacteria and pathogen-associated molecular patterns (PAMPs) that are expressed by microorganisms are recognized by Toll-like receptors (TLRs). In particular, the mechanisms of immunoregulatory activity of CpG-containing bacterial or synthetic DNA fragments include their interaction with TLR9 receptors, known as DNA sensors. Therefore, synthetic peptides that mimics DNA recognizing regions of the receptor can be effective modulators of neutrophil cell responses. The crystal structure of TLR9 was analyzed and it was predicted that leucine-rich repeats (L ...

[3] = test system: TLR9 signaling in RAW 264.7; conditions: ref [9]; cited from earlier work
Text: as §1

[4] = test system: CpG-ODNs; conditions: ref [8]; cited from earlier work
Text: as §1

[5] = test system: human neutrophils (PMNLs); test: Binding and uptake of FAM-labeled ODNs by neutrophils (flow cytometry); format: cell-based; conditions: 1 µM LRR11, 0.15 µM FPS-ZM1; n = 3; Figure 7
Description: Figure 6 The LRR11 peptide affects the binding and uptake of ODNs by neutrophilic granulocytes. PMNLs (1 × 10^6/mL) in HBSS/HEPES were incubated for 20 min at 37 °C in 5% CO2 with 1 µM FAM-labeled ODN, supplemented or not with 1 µM LRR11 peptide. Both the total ODN accumulation (red) and its intracellular constituent (black) were analyzed by flow cytometry. Surface fluorescence was quenched by trypan blue (TB) solution. Values represent the means ± SEM of FAM fluorescence intensities (RFU, relative fluorescence units) (n = 8). ** p < 0.01; *** p < 0.005, **** p < 0.001 for specified data pairs, as indicated by two-way ANOVA followed by Tukey’s multiple comparison test. Mean fluorescence intensities of unstained PMNLs were 62 ± 12 and 39 ± 5.6 without or after TB quenching, respectively.
Figure 7 RAGE antagonist effect on oligonucleotide penetration into neutrophil cells. […] Both total oligonucleotide accumulation (A) and its intracellular constituent (B) were analyzed by flow cytometry. The surface fluorescence was quenched by trypan blue solution. Values represent the means ± SEM of FAM fluorescence intensities (RFU) (n = 3). * p < 0.05; […]; *** p < 0.005 for the pair of data specified, as indicated by two-way ANOVA followed by Tukey’s multiple comparison test. Fluorescence intensities of unstained controls were 62 ± 14 and 49 ± 6 without, or after TB quenching, respectively. […]

QLRKLNLSFNYQKRVSFAHLSLAPSFGSLV [LRR11, 30 amino acid peptide from leucine-rich repeat of TLR9]
effect on bacteria engulfment [1]: LRR11 did not affect this
effect on oligonucleotide internalization [2]: decrease in the oligonucleotide internalization
effect on TLR9 signaling [3]: attenuating of TLR9 signaling
binding to CpG-ODNs [4]: can bind to the CpG-ODNs
effect of LRR11 on FPS-ZM1 inhibition of ODN internalization [5]: overcomes the inhibitory effect of FPS-ZM1; also recorded: the maximum ODN delivery into cells is observed in the presence of LRR11 and a RAGE antagonist
